These results are taken from patent US20110086758A1, “Fungicidal compositions comprising 3'-bromo-2,3,4,6'-tetramethoxy-2',6-dimethylbenzophenone” (BASF SE, priority 2008, published 2011).

The structures appear in SMILES notation.

In the experiment the test system is Sphaerotheca fuliginea. Nature of the experiment: Field testing on melons, natural infection with Sphaerotheca fuliginea. It is filed as in vivo. The following applies: efficacy in % of untreated control, 3 applications. As for the experimental part: The visually determined percentages of infected leaf areas were converted into efficacies in % of the untreated control: The efficacy (E) is calculated as follows using Abbot's formula: W=(1−α/β)·100 • α corresponds to the fungicidal infection of the treated plants in % and • β corresponds to the fungicidal infection of the untreated (control) plants in % At an efficacy of 0, the infection level of the treated plants corresponds to that of the untreated control plants; at an efficacy of 100, the treated plants are not infected. The expected efficacies of active compound mixtures were determined using Colby's formula (S. R. Colby, “Calculating synergistic and antagonistic responses of herbicide combinations”, Weeds 15, pp. 20-22 (1967) and compared with the observed efficacies. E=x+y−x·y/100 • expected efficacy, expressed in % of the untreated control, when using the mixture of the active compounds A and B at the concentrations a and b • x efficacy, expressed in % of the untreated control, when using the active compound A at the concentration a • y efficacy, expressed in % of the untreated control, when using the active compound B at the concentration b The trial was carried out under standardized field conditions. Melons were grown in the field. After 36 days, an application with the recited products was carried out, which was repeated two times after 7 days and after 14 days. No further active components for pathogen control were applied. The infection with the pathogen Sphaerotheca fuliginea ensued naturally. Infestation in % of leaf area affected was scored 35 days after the first application. The visually determined values of % of leaf area infected was initially averaged and then converted into efficacies as % of the untreated control. An efficacy of 0 is the same infestation as the untreated control, an efficacy of 100% is 0% infestation. The expected efficacies of active compound combinations were determined as described above using Colby's formula and compared with the observed efficacies. The active compounds were used as commercially available compositions. […]

As to `CC1COC(Cn2cncn2)(c2ccc(Oc3ccc(Cl)cc3)cc2Cl)O1` (stereo not drawn) [Difenoconazole, 1-{2-[2-chloro-4-(4-chlorophenoxy)phenyl]-4-methyl-[1,3]dioxolan-2-ylmethyl}-1H-[1,2,4]triazole], the “Observed effect 35 days after first treatment” value (dose 30 g ai/ha, scored 35 days after first application) amounted to 19%.

`COc1cc(C)c(C(=O)c2c(OC)ccc(Br)c2C)c(OC)c1OC` [Metrafenone, 3′-bromo-2,3,4,6′-tetramethoxy-2′,6-dimethylbenzophenone]: the “Observed effect 35 days after first treatment” value is listed as 46% (dose 50 g ai/ha, scored 35 days after first application) and 70% (dose 100 g ai/ha, leaf area infested scored 35 days after first application).
